Data reported in US11980625B2, “Ganaxolone for use in treating tuberous sclerosis complex” (Marinus Pharmaceuticals, Inc., priority 2019, dated 2024).

Experiments:
CYP3A4 = CYP3A4 (Homo sapiens, UniProt P08684); assay: In vitro clearance
[1] = tested on: mouse model of posttraumatic stress disorder (PTSD); settings: in vivo; cited from earlier work
rats or mice = assay: Reproductive and developmental toxicity; format: in vivo
[2] = tested on: synaptic and extrasynaptic GABAA receptors; settings: site distinct from benzodiazepines and barbiturates; cited from earlier work
[3] = tested on: patients with CDKL5 deficiency disorder (CDD); assay: Preliminary PK/PD analysis of phase 3 trial in CDKL5 deficiency disorder (CDD); format: in vivo, human
Excerpt: Global, randomized, double-blind, placebo-controlled phase 3 clinical trial to assess the safety and efficacy of adjunctive ganaxolone for the treatment of seizures associated with CDD. Patients aged 2 to 21 years with a pathogenic or likely pathogenic mutation of the CDKL5 gene, neurodevelopmental impairment, and seizures refractory to treatment with at least 2 prior antiseizure medications who experienced at least 16 seizures per 28 days during the 2 months prior to screening were eligible to enroll. Study consisted of a 6-week baseline followed by a 17-week double-blind phase (ganaxolone or placebo, 1:1). The dose of ganaxolone 50 mg/mL suspension was titrated over 4 weeks to 63 mg/kg/day (21 mg/kg TID), not to exceed 1800 mg/d (600 mg TID), or to the maximum tolerated dose. Blood draws for PK analysis were scheduled to occur at visit 3 (week 5), visit 4 (week 9), and visit 5 (week 17).
Mean ganaxolone concentration was calculated for each subject using available results from up to three laboratory determinations during the double-blind phase. Linear regression was conducted using arithmetic- and natural logarithm-transformed percent reduction in major motor seizures (loge [percent reduction+100]) as dependent variable and natural logarithm-transformed mean ganaxolone concentration as the single explanatory variable. Regression diagnostics included examination of residual and normal probability plots and determination of outliers and influential values. Cases with standardized residuals >2 or <−2 were excluded from the model and the regression was repeated.
The resulting sample was utilized in determination of a Pearson correlation coefficient (using log-transformed values). Additionally, percent seizure reduction was compared in three tertiles representing low (N=13), medium (N=13) and high (N=12) mean per subject ganaxolone concentrations using a Kruskal-Wallis test.

[4] = Clinical interaction studies (grapefruit, enzyme-inducing AEDs); format: in vivo, human

CYP3A4, sequence (P08684 whole entry): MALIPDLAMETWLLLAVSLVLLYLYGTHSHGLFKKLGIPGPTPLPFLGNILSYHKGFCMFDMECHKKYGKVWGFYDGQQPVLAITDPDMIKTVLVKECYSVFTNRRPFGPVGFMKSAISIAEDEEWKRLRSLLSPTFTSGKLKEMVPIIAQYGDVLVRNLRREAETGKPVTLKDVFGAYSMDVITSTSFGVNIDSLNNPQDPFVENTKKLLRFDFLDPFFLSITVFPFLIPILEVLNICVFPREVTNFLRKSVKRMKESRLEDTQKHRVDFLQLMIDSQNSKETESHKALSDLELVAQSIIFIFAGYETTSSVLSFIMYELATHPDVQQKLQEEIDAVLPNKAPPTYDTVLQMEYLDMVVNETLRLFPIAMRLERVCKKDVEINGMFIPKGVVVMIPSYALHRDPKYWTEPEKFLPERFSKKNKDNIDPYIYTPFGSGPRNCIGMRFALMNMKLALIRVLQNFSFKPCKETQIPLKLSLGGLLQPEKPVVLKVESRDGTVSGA

CC(=O)[C@H]1CC[C@H]2[C@@H]3CC[C@H]4C[C@](C)(O)CC[C@]4(C)[C@H]3CC[C@]12C [Ganaxolone, 3α-hydroxy-3β-methyl-5α-pregnan-20-one]
enzyme driving clearance (CYP3A4): driven mainly by CYP3A4
behaviour in PTSD mouse model [1]: decreased aggression and social isolation-induced anxiety-like behaviour
development of treated neonatal rats (rats or mice; neonatal rats, expected signs of sedation): did not affect development
fertility and early embryonic development (rats or mice; rats): no effects on fertility and early embryonic development
teratogenicity (rats or mice; rats or mice): not teratogenic
potency and efficacy in activating GABAA receptors [2]: comparable to allopregnanolone
Mean percentage change in major motor seizures (per 28 days) ([3]; High tertile (n = 12)): −44.3%
Median percentage change in major motor seizures (per 28 days) ([3]; High tertile (n = 12)): −46.0%
Mean percentage change in major motor seizures (per 28 days) ([3]; Low tertile (n = 13)): −6.5%
Median percentage change in major motor seizures (per 28 days) ([3]; Low tertile (n = 13)): −8.4%
Mean percentage change in major motor seizures (per 28 days) ([3]; Median tertile (n = 13)): −30.3%
Median percentage change in major motor seizures (per 28 days) ([3]; Median tertile (n = 13)): −39.5%
seizure reduction predicted at a plasma concentration of approximately 100 ng/mL ([3]; back-transformation of log values, CDD participants): approximately 40%
plasma ganaxolone level (mean+standard deviation) ([3]; forty-four participants, 50 mg/mL suspension titrated to 63 mg/kg/day (max 1800 mg/d) TID): 103.5+79.2 ng/mL
effect of grapefruit on exposure ([4]; healthy volunteers, adults): increased the exposure
ganaxolone levels with concomitant enzyme-inducing AEDs ([4]; patients): reduced
